Experimental data as given in patent publication US6955806B2, “Ionene polymers and their use as antimicrobial agents” (Genzyme Corporation, priority 2001, dated 2005).
Like-named read-outs stand apart in the source and are kept apart here.

Settings: mouse, in vivo
Experimental: In vivo toxicity of the polymer of Formula II was assayed in mice. Groups of 5 animals were dosed twice daily for 5 days by oral gavage at a dose of 10, 100, or 500 mg/kg body weight. Animals were assessed daily, and deaths were recorded. The dose at which ½ the animals died was considered the LD50.

Poly(4,4′-trimethylenebis(1-methylpiperidinium)-alt-1,8-octane) [Formula II]
tolerability in 5-day oral toxicity study (10 mg/kg/day): well tolerated
tolerability in 5-day oral toxicity study (100 mg/kg/day): moderate toxicity was evident
